In article PMC10656235, “Reversible and irreversible inhibitors of coronavirus Nsp15 endoribonuclease” (The Journal of Biological Chemistry, 2023):
Values joined by “and” are separate entries in the source; they are usually repeats but may differ in a detail not shown here. Identical values can stand only once. “Also recorded” adds a separate entry of the source. Like-named read-outs stand apart in the source and are kept apart here.

Columns and labels:
SARS-CoV-2 Nsp15 [1] = target: T1, SARS-CoV-2 Nsp15 (Severe acute respiratory syndrome coronavirus 2, UniProt P0DTD1)
SARS-CoV-2 Nsp15 [2] = target: T1, SARS-CoV-2 Nsp15; test: FRET assay with nonionic detergent (colloidal aggregate test); format: biochemical; conditions: 0.01% Triton-X or CHAPS
MERS Nsp15 = MERS Nsp15 (Middle East respiratory syndrome-related coronavirus, UniProt K9N7C7); format: biochemical
SARS-CoV-2 Nsp15 [3] = target: T1, SARS-CoV-2 Nsp15; test: Reversibility: reaction progress after dilution of preincubated enzyme-inhibitor complex; format: biochemical; conditions: 60 min preincubation, 1:50 dilution
SARS-CoV-2 = test: microbe, parasite or virus in culture; format: cell-based; conditions: for Viral titers at a single subtoxic concentration: MOI = 0.1, 24 h postinfection, vs DMSO; for Selectivity index: from CC50 and cellular IC50 in Vero CCL-81 cells
SARS-CoV-2 Nsp15 [4] = target: T1, SARS-CoV-2 Nsp15; test: Nsp15 native RNA cleavage assay (denaturing PAGE, SYBR Gold); format: biochemical
SARS-CoV-2 Nsp15 [5] = target: T1, SARS-CoV-2 Nsp15; test: Nsp15 FRET-based activity assay; format: biochemical; conditions: for Nsp15 inhibition with 5′FAM and 5′Cy5 substrates and quenching: compounds at 25 μM and 50 μM
[6] = Cell cytotoxicity assay (CellTiter-Glo); conditions: African green monkey, CC50, 24 h
SARS-CoV-2 Nsp15 [7] = target: T1, SARS-CoV-2 Nsp15; test: biochemical; format: biochemical
SARS-CoV-2 Nsp15 [8] = target: T1, SARS-CoV-2 Nsp15; test: Effect of DTT on compound inhibition of Nsp15; format: biochemical; conditions: 10 mM vs 1 mM DTT
SARS-CoV-1 Nsp15 = SARS-CoV-1 Nsp15 (Severe acute respiratory syndrome coronavirus, UniProt P0C6X7); format: biochemical
in vitro = conditions: African green monkey
SARS-CoV-2 Nsp15 [9] = target: T1, SARS-CoV-2 Nsp15; test: MALDI-TOF mass spectrometry of Nsp15 preincubated with compound; conditions: preincubation with fivefold molar excess of compound
Calu-3 cells = system: Calu-3 cells; set-up: method as in PMID 33886614; conditions: cited from earlier work
[10] = 31-nt single rU RNA, 1 h at 37 °C
[11] = IC50, Nsp15 activity, FRET assay, Nsp15 1 ng/μl, ~12 min at 37 °C
[12] = RNA substrate titration 0 to 10 µM
[13] = extra sum-of-squares F test, highest inhibitor dose
[14] = Severe acute respiratory syndrome coronavirus 2, 24 h, read-out: IC50, viral inhibition, Vero CCL-81 cells, MOI = 0.1, 24 h infection
[15] = read-out: IC50, viral inhibition, Vero CCL-81 cells, MOI = 0.1, 24 h infection

MERS Nsp15, sequence (K9N7C7 6433-6775 limits assumed): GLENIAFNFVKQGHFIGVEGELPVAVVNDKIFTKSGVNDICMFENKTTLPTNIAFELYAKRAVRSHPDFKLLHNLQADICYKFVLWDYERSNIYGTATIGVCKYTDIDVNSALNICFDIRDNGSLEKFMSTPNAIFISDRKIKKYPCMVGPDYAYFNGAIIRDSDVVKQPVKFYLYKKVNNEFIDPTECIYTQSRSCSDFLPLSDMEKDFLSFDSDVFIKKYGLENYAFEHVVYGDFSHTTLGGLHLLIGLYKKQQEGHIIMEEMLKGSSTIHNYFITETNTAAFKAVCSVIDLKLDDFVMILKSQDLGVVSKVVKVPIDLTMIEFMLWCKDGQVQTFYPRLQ

Row | Compound | Change of Nsp15 activity with inhibitor when detergent is present (SARS-CoV-2 Nsp15 [2]) | Inhibition of MERS Nsp15 (MERS Nsp15) | Reversibility of inhibition (SARS-CoV-2 Nsp15 [3]) | Viral titers at a single subtoxic concentration (SARS-CoV-2; Vero CCL-81 cells) | Inhibition of native RNA substrate cleavage (SARS-CoV-2 Nsp15 [4]; [10]) | IC50 (SARS-CoV-2 Nsp15 [5]; [11]) | Nsp15 inhibition with 5′FAM and 5′Cy5 substrates and quenching (SARS-CoV-2 Nsp15 [5]) | CC50 at 24 h ([6]; Fig. S15) [µM] | Ki (SARS-CoV-2 Nsp15 [7]) [µM] | Kinetic mechanism / predicted type of inhibition (SARS-CoV-2 Nsp15 [7]; [12]) | Km diff. vs DMSO (SARS-CoV-2 Nsp15 [7]; [13]) | Vmax diff. vs DMSO (SARS-CoV-2 Nsp15 [7]; [13]) | further results
1 | 5′-FAM-CAACUAAACGAAC-BHQ1-3′ [RNA2] |  |  |  |  |  |  |  |  |  |  |  |  | Vmax (SARS-CoV-2 Nsp15 [1]): ~0.3 µM/min; Km (SARS-CoV-2 Nsp15 [1]; read-out: Km of substrate): ~3 µM
2 | CC(=O)Nc1ccc(NS(=O)(=O)c2ccc3c(c2)C(=O)c2ccccc2C3=O)cc1 [CID5220994] | higher increase in activity | only modest effects | Nsp15 activity was restored | not statistically different from the control | dose-dependent effects | ~50 µM and 50.9 µM | inhibited Nsp15 using either substrate, without appreciable quenching | 15 to 42 | 72.9 ± 11.6 | competitive with substrate | Yes | No | Vmax (best-fit) (SARS-CoV-2 Nsp15 [7]; inhibitor 50µM): 0.31 µM/min; Vmax (best-fit) (SARS-CoV-2 Nsp15 [7]; inhibitor 100µM): 0.28 µM/min
3 | O=C(N/N=C/c1ccccc1O)c1ccc(O)c(O)c1 [CID5266986] | increase in Nsp15 activity | only modest effects | Nsp15 activity was restored | not statistically different from the control | dose-dependent effects | ~78 µM and 78 µM | inhibited Nsp15 using either substrate, without appreciable quenching | 15 to 42 | 64.9 ± 16.9 | mixed mechanisms of inhibition | Yes | Yes | Vmax (best-fit) (SARS-CoV-2 Nsp15 [7]; inhibitor 125µM): 0.22 µM/min; Vmax (best-fit) (SARS-CoV-2 Nsp15 [7]; inhibitor 175µM): 0.21 µM/min
4 | O=C1/C(=C/c2cc([N+](=O)[O-])cc(Br)c2O)SC(=S)N1Cc1ccccc1 [CID5675221] | increase in Nsp15 activity |  | Nsp15 activity was restored | significantly reduced viral titers | dose-dependent effects | ~20 µM and 20.7 µM | inhibited Nsp15 using either substrate, without appreciable quenching | > 240 | 6.71 ± 2.31 | mixed mechanisms of inhibition | Yes | Yes | IC50 (SARS-CoV-2; [14]): 19 ± 3.9 µM; Selectivity index (SARS-CoV-2): ~15; IC50 (SARS-CoV-2; [15]): ~20 µM and < 20 µM; CC50 at 24 h ([6]; measured in parallel with viral inhibition, Fig. 6): 290 ± 28 µM; Vmax (best-fit) (SARS-CoV-2 Nsp15 [7]; inhibitor 15µM): 0.21 µM/min; Vmax (best-fit) (SARS-CoV-2 Nsp15 [7]; inhibitor 30µM): 0.17 µM/min
5 | Oc1ccc2ccccc2c1SSc1c(O)ccc2ccccc12 [IPA-3, reference compound] | increase in Nsp15 activity | only modest effects; also recorded: reduced effect | irreversible | significantly reduced viral titers | dose-dependent effects |  | inhibited Nsp15 using either substrate, without appreciable quenching |  |  | noncompetitive | No | Yes | Effect of excess DTT on inhibition (SARS-CoV-2 Nsp15 [8]): excess DTT nearly completely reversed inhibition; Inhibition of SARS-CoV-1 Nsp15 (SARS-CoV-1 Nsp15): equal potency; CC50 at 24 h (in vitro): 43 ± 4.8 µM; Peak shift of Nsp15 versus apoprotein (SARS-CoV-2 Nsp15 [9]): ~333 Da; IC50 (SARS-CoV-2; Severe acute respiratory syndrome coronavirus 2, 24 h, Vero CCL-81 cells, MOI = 0.1, 24 h infection, read-out: IC50, viral inhibition): 8.5 ± 1.1 µM; IC50 (SARS-CoV-2; Vero CCL-81 cells, MOI = 0.1, 24 h infection, read-out: IC50, viral inhibition): 10 µM; Selectivity index (SARS-CoV-2): ~5; IC50 (SARS-CoV-2 Nsp15 [5]; FRET assay, Nsp15 1 ng/μl, ~12 min at 37 °C, read-out: IC50, Nsp15 activity): ~7 µM and 6.8 µM; Ki (SARS-CoV-2 Nsp15 [7]; fit to Michaelis-Menten inhibition models, read-out: Computed Ki ± SE): 10.8 ± 0.87 µM; Vmax (best-fit) (SARS-CoV-2 Nsp15 [7]; inhibitor 5µM): 0.23 µM/min; Vmax (best-fit) (SARS-CoV-2 Nsp15 [7]; inhibitor 20µM): 0.11 µM/min
6 | Nc1c(S(=O)(=O)O)cc(Nc2ccc(Nc3nc(Cl)nc(Nc4cccc(S(=O)(=O)O)c4)n3)c(S(=O)(=O)O)c2)c2c1C(=O)c1ccccc1C2=O [Reactive Blue 2, reference compound] |  |  |  |  | produced a fluorescent artifact |  | inhibited Nsp15 using either substrate, without appreciable quenching |  |  |  |  |  | 
7 | Oc1c(Cl)cc(Cl)c(Cl)c1Cc1c(O)c(Cl)cc(Cl)c1Cl [hexachlorophene, reference compound] | increase in Nsp15 activity |  | Nsp15 activity was restored | significantly reduced viral titers |  |  | inhibited Nsp15 using either substrate, without appreciable quenching |  | 1.23 ± 0.3 |  |  | Yes | Inhibition of SARS-CoV-1 Nsp15 (SARS-CoV-1 Nsp15): less potent; IC50 (SARS-CoV-2; [14]): 0.91 ± 0.044 µM; IC50 (SARS-CoV-2; [15]): ~1 µM; Inhibition of native RNA substrate cleavage (SARS-CoV-2 Nsp15 [4]): dose-dependent effects; IC50 (SARS-CoV-2 Nsp15 [5]; IC50, Nsp15 activity): ~1 µM and 1.6 µM and 1 to 2 µM; Kinetic mechanism / predicted type of inhibition (SARS-CoV-2 Nsp15 [7]): mixed mechanisms of inhibition; Km diff. vs DMSO (SARS-CoV-2 Nsp15 [7]): Yes; Vmax (best-fit) (SARS-CoV-2 Nsp15 [7]; inhibitor 3µM): 0.24 µM/min; Vmax (best-fit) (SARS-CoV-2 Nsp15 [7]; inhibitor 6µM): 0.19 µM/min; Kinetic mechanism / predicted type of inhibition (SARS-CoV-2 Nsp15 [7]; listed as Hexachlorophene): Mixed
8 | CCC(CC)COC(=O)[C@H](C)N[P@](=O)(OC[C@H]1O[C@@](C#N)(c2ccc3c(N)ncnn23)[C@H](O)[C@@H]1O)Oc1ccccc1 [remdesivir] |  |  |  | significantly reduced viral titers |  |  |  |  |  |  |  |  | 
9 | CC1(C)CCC2=C(O1)c1ccccc1C(=O)C2=O [β-lapachone, reference compound] |  |  |  |  |  |  | inhibited Nsp15 using either substrate, without appreciable quenching |  |  |  |  |  | 
10 | Exebryl-1 |  |  |  |  |  |  |  |  |  |  |  |  | EC50 (Calu-3 cells): ~65 µM
